{"source": "ChEMBL document CHEMBL1128937", "about": "“Coumarin-based prodrugs 2. Synthesis and bioreversibility studies of an esterase-sensitive cyclic prodrug of dadle, an opioid peptide” (Bioorg Med Chem Lett, 1996)", "system": "esterase", "assay": "Half-life time was determined for esterase-catalyzed hydrolysis of the phenol ester bond in porcine liver esterase", "format": "ADME, Sus scrofa", "conditions": "pig"}
{"smiles": "CC(C)C[C@H]1NC(=O)Oc2ccccc2/C=C\\C(=O)NC(=O)[C@H](Cc2ccc(O)cc2)NC(=O)[C@@H](C)NC(=O)CNC(=O)[C@H](Cc2ccccc2)NC1=O", "values": [{"measurement": "half-life", "result": 12.7, "unit": "h"}]}
